In US20040266811A1, “Methods for inducing regeneration, remyelination, and hypermyelination of nervous tissue” (priority 2002, published 2004):
Where “and” joins values, the source holds several entries; their conditions need not be identical. Equal entries are not always repeated. Entries after “also recorded” stand apart in the source; their conditions may differ.

How the values were obtained:
crushed sciatic nerve = test: Sciatic nerve crush and regeneration (electron microscopy morphometry); type: in vivo, adult, outbred ICR mice
Protocol: (A) The sciatic nerves of adult, outbred ICR mice were crushed, as previously described (Gondre et al., Accelerated nerve regeneration mediated by Schwann cells expressing a mutant form of the POU protein SCIP. J. Cell Biol., 141:493-501, 1998). Following the surgery, the animals were randomized into treatment groups of either GM-284 (10 mg/kg) or vehicle. At the end of 30 days, the animals were sacrificed, their sciatic nerves were prepared for electron microscopy, and subsequently evaluated for the extent of both axonal and myelin regeneration. All sampling was done at the same proximal-distal levels, and approximately 5 mm below the crush site. […] (B) Quantitative analysis of both axonal and myelin growth in response to GM-284 treatment was carried out by digitizing the images in (A), and determining the axonal and myelin volumes, calculated in voxels.
Mice were anesthetized (i.p.) with 0.5 cc of 2.5% Avertin/saline, before perfusion via the left ventricle. The animals were perfused for 30 min at 37° C., with a rat Ringer's solution containing heparin (2.0 ml/L; stock=10,000 units/ml) and 2% lidocaine (3.0 ml/L), followed by perfusion for 7-10 min with 2% glutaraldehyde/1% paraformaldehyde in 0.15 M sodium cacodylate, pH 7.2. Approximately 1 cm of sciatic nerve was dissected from the hind leg (from the hip to the knee), and split into 3 sections (proximal, medial, and distal). A 2-mm length was taken from each of the three sections, then immersion fixed. The primary fixation was carried out for 2-4 h total, at 4° C., with 2% glutaraldehyde/1% paraformaldehyde in 0.15 M sodium cacodylate buffer, pH 7.2. Tissues were rinsed 6 times, for 20 min each, then rinsed overnight at 4° C. in 0.15 M sodium cacodylate buffer, pH 7.2.
Secondary fixation was carried out for 4 h at 4° C. in 1% osmium-tetroxide/1.5% potassium-ferrocyanide in 0.15 M sodium cacodylate buffer, pH 7.2. Tissues were rinsed 3 times, for 10 min each, in Millipore-filtered water at 4° C., then stained en bloc in 2% uranyl acetate (aq) at 4° C. for 1 h. At this point, the tissues were dehydrated once for 8 min in a graded ethanol series starting with water, 30%, 50%, 70%, 95%, and then dehydrated twice, for 10 min each, in 100% ethanol and then in propylene oxide. After dehydration, the nerve tissue was infiltrated with propylene oxide/Durcupan (Fluka Chemika-BioChemika, Ronkonkoma, N.Y.), in a 25/75 ratio, for 60 min at room temperature. This was followed by infiltration three times, for 120 min each, in Durcupan resin at room temperature. Sciatic nerves were flat-embedded in fresh Durcupan resin, and polymerized for 24-36 h at 65° C. 1-μM-thick sections were stained with Toluidine blue. Silver sections were cut on a Diatome diamond knife, and stained with 2% uranyl acetate for 30 min at room temperature, and with Reynold's lead citrate for 7 min. Thin sections were viewed at 60 kv, and photographed on a JEOL 100 CX conventional transmission electron microscope.
Deep anesthesia was obtained with i.p. injection of Avertin. Electrophysiology recordings were obtained, as previously described (Bieri et al., Abnormal nerve conduction studies in mice expressing a mutant form of the POU transcription factor SCIP. J. Neurosci. Res., 50:821-28, 1997). Immediately afterward, the right sciatic nerve of each animal was exposed and crushed 2 times, for 30 sec each, using a #5 Dumont forceps. In brief, the skin was prepped bilaterally prior to electrophysiologic testing. […]

recombinant FKBP52 = target: T1, recombinant FKBP52 (Homo sapiens, UniProt Q02790); test: Tryptophan fluorescence (QTFS) binding to recombinant FKBP52
T1 construct: other: QTFS, 18° C., unit not given; dissociation constant (kd) for FKBP52 by QTFS; other: QTFS; fused on or other part: probably GST at the N-terminus (pGEX-6p), as in b91 and the GST-alone control of b31
T1 sequence (Q02790 1-459): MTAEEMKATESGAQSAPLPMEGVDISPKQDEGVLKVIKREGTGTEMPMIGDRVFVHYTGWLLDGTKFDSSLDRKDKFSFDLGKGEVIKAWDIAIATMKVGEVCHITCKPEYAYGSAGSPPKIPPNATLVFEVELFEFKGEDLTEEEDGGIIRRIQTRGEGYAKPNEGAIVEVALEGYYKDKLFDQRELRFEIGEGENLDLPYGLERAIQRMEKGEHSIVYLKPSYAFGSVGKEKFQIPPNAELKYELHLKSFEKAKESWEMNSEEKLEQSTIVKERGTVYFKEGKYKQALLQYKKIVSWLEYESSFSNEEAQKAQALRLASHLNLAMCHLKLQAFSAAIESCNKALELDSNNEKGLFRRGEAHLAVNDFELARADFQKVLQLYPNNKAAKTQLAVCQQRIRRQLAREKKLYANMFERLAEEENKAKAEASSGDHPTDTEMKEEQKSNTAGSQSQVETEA

DRG explants = test: Neurite outgrowth from DRG explants; type: cell-based, C57B1/6 mice; conditions: 1 μM GM-284, 96 h
Protocol: (A) DRGs were explanted and cultured alone, (panel i), in the presence of 100 ng/ml NGF (panel ii) or in the presence of 1 μM GM-284 (panel iii), for 96 h. At the end of the culture period, the tissue was fixed and stained for expression of neuron-specific β-III tubulin. […] (B) Both Schwann cells and neurons are present in DRG explants. To determine if the neuritogenic effects of GM-284 are direct, acting on neurons, or indirect, acting through Schwann cells, sensory neurons from E18 mice were isolated and treated with either NGF (left panel) or GM-284 (right panel) for 6 days.
Explanted DRG ganglia were dissected from P1 to P3 C57B1/6 mice, as previously described (Weinstein et al., Targeted expression of an oncogenic adaptor protein v-Crk potentiates axonal growth in dorsal root ganglia and motor neurons in vivo. Brain Res. Dev. Brain Res., 116:29-39, 1999). Briefly, DRGs were dissected and placed in ice-cold PBS containing 2% glucose, then transferred onto polyornithine/laminin-coated tissue culture plates (Biocoat, Becton Dickinson Laboratories) in DMEM-plating medium overnight. […] Cultures were kept at 37° C., in 5% CO2, for up to 1 week, at which time the extent of well-defined neurite outgrowth was assessed.

[1] = 10 mg/kg daily, one month after crush

CCC(C)(C)C(=O)C(=O)N1CCC[C@H]1c1nnc([C@@H]2CCCN2C(=O)C(=O)C(C)(C)CC)o1 [GM-284]
increase in myelin (volume in voxels) (crushed sciatic nerve; [1]): ~3 fold | increase in the size of myelinated axons (crushed sciatic nerve; [1]): 3- to 4 fold and 4 fold | histology of regenerated sciatic nerve (crushed sciatic nerve; 10 mg/kg daily, one month after crush, electron microscopy): induced both axonal hypertrophy and a global over-elaboration of the myelin organelle; also recorded: enhanced axonal regeneration; also recorded: clear axonal hypertrophy, as well as hypermyelination; also recorded: hypermyelination and axonal hypertrophy | ratio of axonal volume to myelin volume (crushed sciatic nerve; GM-284-treated group, NIH Image): 0.2 | increase in myelin volume, relative to each axon (crushed sciatic nerve; vs vehicle, p<0.0001): 20 fold | disassociation constant (kd), binding affinity for recombinant FKBP52 (recombinant FKBP52; 18° C., unit not given): 139±16.2 | Kd (recombinant FKBP52; read-out: dissociation constant (kd) for FKBP52 by QTFS): 139 nM | neurite outgrowth from DRG explants (DRG explants): as active as NGF in inducing neuritogenesis; also recorded: indistinguishable from NGF-treated sister explants; also recorded: comparable outgrowth in the NGF and GM-284 treated cultures
